Source: publication PMC9347360 (RSC Chemical Biology, 2022)
Where a SMILES comes first, the peptide text is derived from it.

What was measured:
[1] = target: BRD4-BD1; conditions: as measured previously; cited from earlier work
[2] = target: BRD4-BD1; experiment: ITC binding to BRD4-BD1; conditions: BRD4-BD1 Kd (ref 36) compared to that of BRD1-BD
[3] = target: T1, wild type BRD1-BD (Homo sapiens, UniProt O95696); experiment: ITC binding to wild type BRD1 bromodomain
T1 sequence (O95696 562-666 limits assumed): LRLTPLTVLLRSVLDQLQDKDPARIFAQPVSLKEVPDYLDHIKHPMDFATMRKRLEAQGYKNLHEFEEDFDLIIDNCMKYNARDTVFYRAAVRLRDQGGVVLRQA

CC(=O)NCCCC[C@H](NC(=O)CNC(=O)[C@H](C)NC(=O)[C@H](C)NC(=O)[C@H](CCCCNC(C)=O)NC(=O)[C@H](C)N)C(=O)N[C@@H](CC(C)C)C(=O)N[C@@H](CCCCNC(C)=O)C(=O)N[C@@H](C)C(N)=O [peptide 6] (H-AK(Ac)AAGK(Ac)LK(Ac)A-NH2)
Kd [1]: 353 µM | Kd for BRD4-BD1 relative to BRD1-BD (fold higher) [2]: about 15 fold | Kd [3]: 24.5 ± 11.7 µM
